According to paper PMC5478727, “A Novel Small Molecule GDNF Receptor RET Agonist, BT13, Promotes Neurite Growth from Sensory Neurons in Vitro and Attenuates Experimental Neuropathy in the Rat” (Frontiers in Pharmacology, 2017):

Experiments:
[1] = tested on: adult rat lumbar DRG sensory neurons; assay: Neurite outgrowth from cultured DRG neurons; assay type: cell-based; details: NGF 10 ng/ml, BT13 100 ng/ml
Method: Cultured lumbar DRG (L3–L5) neurons were prepared using a published method (O'Mullane et al., [2013]). After plating onto poly-L-ornithine (5 μg/ml)/laminin (5 μg/ml) coated coverslips for 1 h, DRG neurons were cultured for 24–30 h in fresh Neurobasal A/B27. GFLs, BT13, NGF, and vehicle control were added at the start of this period for a 24–30 h treatment, except when preceded by pre-treatment (1 h) with inhibitors (50 μM LY294002; 2 μM SU6656, […]; Biomol Research Laboratories, Plymouth Meeting, PA, USA). DRG neurons were then fixed (4% paraformaldehyde) and processed for immunocytochemistry with 1:200 Mouse anti-β III tubulin/AlexaFluor 594 (Sigma-Aldrich Cat# T8660 RRID:AB_477590) and 1:5,000 rabbit anti-calcitonin gene-related peptide/AlexaFluor 488 (Sigma-Aldrich Cat# C8198 RRID:AB_259091) and DAPI for nuclear staining (0.5 μg/ml, Molecular Probes). Image analysis of multichannel 12 bit Zeiss .ZVI or .TIF files (captured with a Zeiss Imager.M1/MRm camera/Zen software; Carl Zeiss Australia, North Ryde, NSW, Australia) was then performed by a researcher blinded to the experimental condition. Neurite initiation was measured by a single parameter (proportion of neurons with neurites longer than the soma diameter). Neurite elongation was measured by batch processing (HCA-Vision software; CSIRO Mathematical and Information Sciences, North Ryde, NSW, Australia) to obtain four parameters—Root number: number of primary neurites; Maximum length: length of longest neurite; Branch points: number of neurite branch points; and Total length: sum of neurite lengths (Kalous and Keast, [2010]; Kalous et al., [2012]). The number of neurons of each immunocytochemical class counted on each coverslip (technical replicates) was 50 for neurite initiation and 20 for neurite elongation. A minimum of three cultures from different rats (biological replicates) were analyzed for each treatment group.

[2] = target: cholecystokinin receptor CK1 (CCKA) (Homo sapiens, UniProt P32238); assay: CEREP CK1 (CCKA) (h) (agonist radioligand); assay type: binding; details: BT13 1 μM; Cat. No. 0039; average of duplicate; read-out: Percentage of inhibition/potentiation from control
cholecystokinin receptor CK1 (CCKA), sequence (P32238 whole entry, canonical isoform): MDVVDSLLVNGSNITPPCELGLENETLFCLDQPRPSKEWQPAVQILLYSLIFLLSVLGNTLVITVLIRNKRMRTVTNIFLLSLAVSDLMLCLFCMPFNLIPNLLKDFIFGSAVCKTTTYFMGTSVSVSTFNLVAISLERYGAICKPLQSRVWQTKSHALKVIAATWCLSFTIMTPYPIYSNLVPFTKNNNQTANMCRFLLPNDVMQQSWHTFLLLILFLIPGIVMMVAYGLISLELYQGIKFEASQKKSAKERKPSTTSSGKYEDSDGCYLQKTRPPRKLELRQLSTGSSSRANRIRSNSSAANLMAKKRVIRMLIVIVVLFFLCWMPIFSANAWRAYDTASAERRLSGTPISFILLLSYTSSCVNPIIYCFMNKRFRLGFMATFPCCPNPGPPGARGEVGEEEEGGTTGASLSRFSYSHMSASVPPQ

CYP2D6 = target: T1, CYP2D6 (Homo sapiens, UniProt P10635); assay: CYP inhibition, fluorescent assay; assay type: biochemical; details: read-out: Inhibition of CYP isoforms (IC50), CYP2D6
T1 construct: Cyathus Exquirere (contract laboratory)
T1 sequence (P10635 whole entry, canonical isoform): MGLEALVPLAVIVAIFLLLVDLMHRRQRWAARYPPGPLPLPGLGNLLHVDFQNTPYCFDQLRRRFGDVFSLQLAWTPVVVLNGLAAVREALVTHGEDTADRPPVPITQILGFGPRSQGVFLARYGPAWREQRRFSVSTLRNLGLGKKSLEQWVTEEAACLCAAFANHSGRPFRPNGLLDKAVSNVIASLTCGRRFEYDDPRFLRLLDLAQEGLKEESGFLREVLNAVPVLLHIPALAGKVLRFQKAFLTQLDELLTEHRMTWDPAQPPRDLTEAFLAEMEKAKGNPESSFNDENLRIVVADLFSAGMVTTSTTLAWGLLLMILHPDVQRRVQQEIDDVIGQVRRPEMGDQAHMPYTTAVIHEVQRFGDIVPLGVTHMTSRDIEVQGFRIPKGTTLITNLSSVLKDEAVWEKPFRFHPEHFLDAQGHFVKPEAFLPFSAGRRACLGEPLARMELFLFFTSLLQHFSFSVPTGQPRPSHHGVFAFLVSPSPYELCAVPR

[3] = tested on: dorsal root ganglia neurons of SNL rats; assay: Immunohistochemistry of DRG neuronal markers in rats with spinal nerve ligation; assay type: in vivo, rat
Source text: DRGs from rats with spinal nerve ligation treated with BT13 or vehicle were embedded in paraffin and sectioned (7 μm thickness). Sections were deparaffinized, subjected to citrate or basic antigen-retrieval procedure and probed with IB4-Alexa 488 [1:200; IB4-Alexa488, Cat# IB4 (isolectin Griffonia simplicifolia IB4) RRID:AB_2314664] and antibodies against calcitonin gene-related peptide (CGRP; 1:10,000, Peninsula Laboratory, Cat# T-4032 RRID:AB_2313775), NPY (1:10,000, Peninsula Laboratory, Cat# T-4070.0050 RRID:AB_518504), pErk1/2 (1:300, Cell Signaling, Cat# 4370L RRID:AB_2297462), pS6 (1:300, Cell Signaling, Cat# 4858L RRID:AB_1031194) or RET [1:100, kind gift of Dr. E. Kramer, Center for Molecular Neurobiology, University Medical Center Hamburg-Eppendorf, Hamburg, Germany (Meka et al., [2015])] and corresponding secondary antibodies conjugated with fluorophores (Donkey Anti-Rabbit Alexa Fluor 647 conjugate, Cat# A31573 RRID:AB_162544; Donkey anti-Mouse Alexa Fluor 647 conjugate, Cat# A-31571 RRID:AB_2536181; Goat anti-Guinea Pig, Alexa Fluor 568 conjugate, Cat# A-11075 RRID:AB_2534119, Thermo Fisher Scientific, USA) or horse radish peroxidase (VECTASTAIN Elite ABC-Peroxidase Kit antibody, Vector Laboratories, CA, USA, Cat# PK-6101 RRID:AB_2336820). In the latter case, to reveal staining slides were treated with ABC and DAB staining kits (Vector Laboratories, CA, USA) according to the manufacturer's instructions. Sections were co-stained with guinea pig anti-PGP9.5 antibodies (Abcam Cat# ab10410 RRID:AB_297150) whenever possible. Nuclei were visualized using hematoxylin or DAPI dyes. Sections were mounted in Immu-Mount (Thermo Scientific, Cat#9990402) or Coverquick 2000 (Q PATH, Cat#05547530) mounting media and images were taken with fluorescent (Zeiss Imager M2 Axio, Carl Zeiss, Germany) or bright-field (Olympus BX-61, Olympus, Japan) microscopes. Neurons were counted for two sections per DRG and the number of cell profiles with nuclei positive for each specific marker was normalized to the total number of the neurons (identified by PGP9.5 staining or by morphology) per section. Ret-positive neurons were clustered by size using Matlab software R2014b (Mathworks, USA). Statistical analysis was performed using data from three to six individual animals. To obtain sufficient sample size, the data from animals treated with 20 and 25 mg/kg of BT13 were combined.

[4] = tested on: rats with spinal nerve ligation (L5/L6); assay: Spinal nerve ligation (Chung's) model of experimental neuropathy, von Frey test; details: for increase of ipsilateral paw withdrawal threshold (PWT): von Frey, day 12 post-surgery
dopamine receptor D2L = dopamine receptor D2L (Homo sapiens, UniProt P14416); assay: CEREP D2L (h) (antagonist radioligand); assay type: binding; details: BT13 1 μM; Cat. No. 1405; average of duplicate; read-out: Percentage of inhibition/potentiation from control
dopamine receptor D2L, sequence (P14416 whole entry): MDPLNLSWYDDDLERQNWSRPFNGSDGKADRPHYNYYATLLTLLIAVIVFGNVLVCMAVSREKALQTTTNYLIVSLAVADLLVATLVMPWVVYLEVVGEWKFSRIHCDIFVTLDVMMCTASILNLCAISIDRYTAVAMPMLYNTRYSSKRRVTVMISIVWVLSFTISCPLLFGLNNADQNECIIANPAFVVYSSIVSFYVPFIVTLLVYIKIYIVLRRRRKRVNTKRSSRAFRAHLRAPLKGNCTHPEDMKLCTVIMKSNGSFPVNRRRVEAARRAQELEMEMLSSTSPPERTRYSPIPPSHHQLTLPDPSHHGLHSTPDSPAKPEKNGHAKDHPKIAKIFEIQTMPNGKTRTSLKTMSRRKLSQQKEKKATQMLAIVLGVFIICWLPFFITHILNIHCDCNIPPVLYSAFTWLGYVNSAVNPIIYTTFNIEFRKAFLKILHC

[5] = CGRP-positive neurons, vs control
[6] = SNL rats, BT13 vs vehicle, day 12
[7] = SNL rats, vs vehicle-treated animals

CCN(CC)S(=O)(=O)c1ccc(OC)c(N2CCN(C(=O)c3ccc(F)cc3C(F)(F)F)CC2)c1 [BT13]
neurite initiation or extension ([1]; CGRP-negative neurons, ARTN 30 ng/ml): no effect
neurite initiation ([1]; CGRP-positive neurons, ARTN 30 ng/ml, overnight): no effect
neurite elongation, branch points, mean difference [1, 5]: 22 ± 5
neurite elongation, maximum length, mean difference [1, 5]: 91 ± 13 μm
neurite elongation, total length, mean difference [1, 5]: 797 ± 207 μm
proportion of DRG neurons that expressed CGRP in culture ([1]; ARTN 30 ng/ml): did not alter
inhibition at 1 µM [2]: 3%
IC50 (CYP2D6): > 100 µM
reduction in the number of RET-positive cells in DRGs after SNL ([3]; IHC, day 12 after SNL): restored
number of large RET-positive neurons in lesioned DRGs ([3]; IHC, size above 1,000 μm^2, vs contralateral): increased
number of small RET-positive neurons in lesioned DRGs ([3]; IHC, size below 1,000 μm^2, vs contralateral): decreased
IB4 positive cells per section in ipsilateral DRGs ([3]; SNL rats, BT13 20 and 25 mg/kg combined, day 12): 3%
number of NPY-positive neurons in contralateral DRGs ([3]; SNL rats, BT13-treated, vehicle 0.0 ± 0.0): 0.0 ± 0.0
number of CGRP-positive neurons in contralateral DRGs ([3]; SNL rats, BT13-treated, vehicle 34.30 ± 1.344): 25.09 ± 2.687
number of IB4-positive neurons in contralateral DRGs ([3]; SNL rats, BT13-treated, vehicle 44.95 ± 4.295): 44.82 ± 1.960
increase in number of CGRP-positive neurons in ipsilateral DRGs [3, 6]: ~ 2 times
reduction in number of NPY-positive cells in ipsilateral DRGs [3, 6]: ~ 25%
number of neurons positive for pErk in DRGs [3, 7]: increased
number of neurons positive for pS6 in DRGs [3, 7]: increased
increase of ipsilateral paw withdrawal threshold (PWT) ([4]; BT13 20 mg/kg s.c. on days 1, 3, 5, 8, 10, 12): 2.5 times
increase of ipsilateral paw withdrawal threshold (PWT) ([4]; BT13 25 mg/kg s.c. on days 1, 3, 5, 8, 10, 12): 2.9 times
effect on contralateral PWTs ([4]; repeated post-surgical s.c. administration of BT13): did not influence
inhibition at 1 µM (dopamine receptor D2L): -3%
